In patent US6355799B1, “Substituted benzene compounds, process for their preparation, and herbicidal and defoliant compositions containing them” (ISK Americas Incorporated, priority 1997, dated 2002):

Tests used:
Type in all cases: in vivo
[1] = tested on: redroot pigweed (Amaranthus retroflexus, AMARE); experiment: Pre-emerge test, greenhouse herbicide activity screening; details: pre-emerge, 14 days after application, scale 0-100
Summary of the method: (§1)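 Compounds in acetone were track-sprayed at 15-1000 g ai/ha (187 l/ha) on sandy loam pots: pre-emerge one day after seeding, post-emerge at 2-3 leaf stage with 0.25% v/v non-ionic surfactant. Phytotoxicity was rated 14 days later on a 0 (no damage) to 100 (complete death) scale.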

[2] = tested on: barnyardgrass (Echinochloa crus-galli, ECHCG); experiment: as above; details: pre-emerge, 14 days after application, scale 0-100
Summary of the method: as §1

[3] = tested on: green foxtail (Setaria viridis, SETVI); experiment: as above; details: pre-emerge, 14 days after application, scale 0-100
Summary of the method: as §1

[4] = tested on: ivyleaf morningglory (Ipomoea hederacea, IPOHE); experiment: as above; details: pre-emerge, 14 days after application, scale 0-100
Summary of the method: as §1

[5] = tested on: johnsongrass (Sorghum halepense, SORHA); experiment: as above; details: pre-emerge, 14 days after application, scale 0-100
Summary of the method: as §1

[6] = tested on: lambsquarters (Chenopodium album, CHEAL); experiment: as above; details: pre-emerge, 14 days after application, scale 0-100
Summary of the method: as §1

[7] = tested on: large crabgrass (Digitaria sanguinalis, DIGSA); experiment: as above; details: pre-emerge, 14 days after application, scale 0-100
Summary of the method: as §1

[8] = tested on: sicklepod (Cassia obtusifolia, CASOB); experiment: as above; details: pre-emerge, 14 days after application, scale 0-100
Summary of the method: as §1

[9] = tested on: velvetleaf (Abutilon theophrasti, ABUTH); experiment: as above; details: pre-emerge, 14 days after application, scale 0-100
Summary of the method: as §1

[10] = tested on: field corn (Zea mays L., var. Dekalb 535, CORN); experiment: Pre-emerge test, crop safety; details: pre-emerge, 14 days after application, scale 0-100
Summary of the method: (§2)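 Visual ratings on a 0-100 scale (0 no damage, 100 all plants dead) were taken at 14 days after treatment. Rates of 15-1000 g ai/ha in acetone, 187 l/ha, were sprayed onto soil one day after planting (pre-emerge) or onto 2-3 leaf plants with 0.25% v/v surfactant (post-emerge).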

[11] = tested on: upland rice (Oryza sp., var. Tebonnet, RICE); experiment: Pre-emerge test, crop safety; details: pre-emerge, 14 days after application, scale 0-100
Summary of the method: as §2

[12] = tested on: barnyardgrass (Echinochloa crus-galli, ECHCG); experiment: Post-emerge test, greenhouse herbicide activity screening; details: post-emerge, 14 days after application, rating scale 0-100
Summary of the method: (§3)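 Plants grown in 10 cm pots of sandy loam mix received acetone-dissolved compounds through a moving flat-fan nozzle. Doses ranged from 15 to 1000 g ai/ha. Pre-emerge pots were seeded one day earlier, post-emerge pots 8–21 days earlier. Fourteen days on, each pot was graded 0–100 for damage.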

[13] = tested on: green foxtail (Setaria viridis, SETVI); experiment: as above; details: post-emerge, 14 days after application, rating scale 0-100
Summary of the method: as §3

[14] = tested on: ivyleaf morningglory (Ipomoea hederacea, IPOHE); experiment: as above; details: post-emerge, 14 days after application, rating scale 0-100
Summary of the method: as §3

[15] = tested on: lambsquarters (Chenopodium album, CHEAL); experiment: as above; details: post-emerge, 14 days after application, rating scale 0-100
Summary of the method: as §3

[16] = tested on: large crabgrass (Digitaria sanguinalis, DIGSA); experiment: as above; details: post-emerge, 14 days after application, rating scale 0-100
Summary of the method: as §3

[17] = tested on: redroot pigweed (Amaranthus retroflexus, AMARE); experiment: as above; details: post-emerge, 14 days after application, rating scale 0-100
Summary of the method: as §3

[18] = tested on: sicklepod (Cassia obtusifolia, CASOB); experiment: as above; details: post-emerge, 14 days after application, rating scale 0-100
Summary of the method: as §3

[19] = tested on: velvetleaf (Abutilon theophrasti, ABUTH); experiment: as above; details: post-emerge, 14 days after application, rating scale 0-100
Summary of the method: as §3

[20] = tested on: field corn (Zea mays L., var. Dekalb 535, CORN); experiment: Post-emerge test, crop safety; details: post-emerge, 14 days after application, rating scale 0-100
Summary of the method: as §1

[21] = tested on: upland rice (Oryza sp., var. Tebonnet, RICE); experiment: Post-emerge test, crop safety; details: post-emerge, 14 days after application, rating scale 0-100
Summary of the method: as §1

COc1c(Cl)cc(F)c(-n2c(=O)cc(C(F)(F)F)n(C)c2=O)c1NC(=O)CCc1cc(C)ccc1C [2-132]
40: phytotoxicity rating ECHCG ([2]; 250 g ai/ha) | phytotoxicity rating IPOHE ([4]; 250 g ai/ha) | ECHCG phytotoxicity rating ([12]; 250 g ai/ha) | SETVI phytotoxicity rating ([13]; 63 g ai/ha)
90: phytotoxicity rating SETVI ([3]; 63 g ai/ha)
30: phytotoxicity rating ECHCG ([2]; 63 g ai/ha) | phytotoxicity rating SORHA ([5]; 63 g ai/ha)
15: phytotoxicity rating CORN (crop damage) ([10]; 250 g ai/ha) | phytotoxicity rating RICE (crop damage) ([11]; 63 g ai/ha)
50: phytotoxicity rating SORHA ([5]; 250 g ai/ha) | phytotoxicity rating CASOB ([8]; 63 g ai/ha) | RICE phytotoxicity rating (crop damage) ([21]; 63 g ai/ha)
99: CASOB phytotoxicity rating ([18]; 250 g ai/ha)
25: DIGSA phytotoxicity rating ([16]; 250 g ai/ha)
45: phytotoxicity rating RICE (crop damage) ([11]; 250 g ai/ha)
60: phytotoxicity rating DIGSA ([7]; 63 g ai/ha) | SETVI phytotoxicity rating ([13]; 250 g ai/ha) | CORN phytotoxicity rating (crop damage) ([20]; 63 g ai/ha)
20: phytotoxicity rating IPOHE ([4]; 63 g ai/ha) | ECHCG phytotoxicity rating ([12]; 63 g ai/ha)
100: phytotoxicity rating AMARE ([1]; 63 g ai/ha) | phytotoxicity rating AMARE ([1]; 250 g ai/ha) | phytotoxicity rating SETVI ([3]; 250 g ai/ha) | phytotoxicity rating CHEAL ([6]; 63 g ai/ha) | phytotoxicity rating CHEAL ([6]; 250 g ai/ha) | phytotoxicity rating DIGSA ([7]; 250 g ai/ha) | phytotoxicity rating CASOB ([8]; 250 g ai/ha) | phytotoxicity rating ABUTH ([9]; 63 g ai/ha) | phytotoxicity rating ABUTH ([9]; 250 g ai/ha) | IPOHE phytotoxicity rating ([14]; 63 g ai/ha) | IPOHE phytotoxicity rating ([14]; 250 g ai/ha) | CHEAL phytotoxicity rating ([15]; 63 g ai/ha) | CHEAL phytotoxicity rating ([15]; 250 g ai/ha) | AMARE phytotoxicity rating ([17]; 63 g ai/ha) | AMARE phytotoxicity rating ([17]; 250 g ai/ha) | CASOB phytotoxicity rating ([18]; 63 g ai/ha) | ABUTH phytotoxicity rating ([19]; 63 g ai/ha) | ABUTH phytotoxicity rating ([19]; 250 g ai/ha)
80: RICE phytotoxicity rating (crop damage) ([21]; 250 g ai/ha)
5: phytotoxicity rating CORN (crop damage) ([10]; 63 g ai/ha)
75: CORN phytotoxicity rating (crop damage) ([20]; 250 g ai/ha)
10: DIGSA phytotoxicity rating ([16]; 63 g ai/ha)

COc1c(Cl)cc(F)c(-n2c(=O)cc(C(F)(F)F)n(C)c2=O)c1NC(=O)COc1ccc(F)cc1 [2-133]
90: IPOHE phytotoxicity rating ([14]; 63 g ai/ha)
85: ECHCG phytotoxicity rating ([12]; 250 g ai/ha)
93: phytotoxicity rating RICE (crop damage) ([11]; 250 g ai/ha)
20: phytotoxicity rating CORN (crop damage) ([10]; 63 g ai/ha)
50: ECHCG phytotoxicity rating ([12]; 63 g ai/ha)
55: phytotoxicity rating CASOB ([8]; 63 g ai/ha)
95: phytotoxicity rating ECHCG ([2]; 250 g ai/ha) | phytotoxicity rating SETVI ([3]; 63 g ai/ha) | phytotoxicity rating DIGSA ([7]; 63 g ai/ha) | CORN phytotoxicity rating (crop damage) ([20]; 250 g ai/ha) | RICE phytotoxicity rating (crop damage) ([21]; 250 g ai/ha)
80: phytotoxicity rating IPOHE ([4]; 63 g ai/ha) | phytotoxicity rating CORN (crop damage) ([10]; 250 g ai/ha) | CASOB phytotoxicity rating ([18]; 63 g ai/ha) | RICE phytotoxicity rating (crop damage) ([21]; 63 g ai/ha)
65: phytotoxicity rating ECHCG ([2]; 63 g ai/ha)
100: phytotoxicity rating AMARE ([1]; 63 g ai/ha) | phytotoxicity rating AMARE ([1]; 250 g ai/ha) | phytotoxicity rating SETVI ([3]; 250 g ai/ha) | phytotoxicity rating IPOHE ([4]; 250 g ai/ha) | phytotoxicity rating SORHA ([5]; 250 g ai/ha) | phytotoxicity rating CHEAL ([6]; 63 g ai/ha) | phytotoxicity rating CHEAL ([6]; 250 g ai/ha) | phytotoxicity rating DIGSA ([7]; 250 g ai/ha) | phytotoxicity rating CASOB ([8]; 250 g ai/ha) | phytotoxicity rating ABUTH ([9]; 63 g ai/ha) | phytotoxicity rating ABUTH ([9]; 250 g ai/ha) | IPOHE phytotoxicity rating ([14]; 250 g ai/ha) | CHEAL phytotoxicity rating ([15]; 63 g ai/ha) | CHEAL phytotoxicity rating ([15]; 250 g ai/ha) | AMARE phytotoxicity rating ([17]; 63 g ai/ha) | AMARE phytotoxicity rating ([17]; 250 g ai/ha) | CASOB phytotoxicity rating ([18]; 250 g ai/ha) | ABUTH phytotoxicity rating ([19]; 63 g ai/ha) | ABUTH phytotoxicity rating ([19]; 250 g ai/ha)
75: phytotoxicity rating SORHA ([5]; 63 g ai/ha) | SETVI phytotoxicity rating ([13]; 250 g ai/ha)
30: DIGSA phytotoxicity rating ([16]; 63 g ai/ha)
70: phytotoxicity rating RICE (crop damage) ([11]; 63 g ai/ha) | SETVI phytotoxicity rating ([13]; 63 g ai/ha) | DIGSA phytotoxicity rating ([16]; 250 g ai/ha) | CORN phytotoxicity rating (crop damage) ([20]; 63 g ai/ha)
